Results as given in patent US5708016A, “Pseudopeptides derived from neurokinins” (Adir et Compagnie, priority 1996, dated 1998).

Key:
[1] = molecular target: T1, human NK2 receptor (Homo sapiens, UniProt P21452); experiment: Affinity for the human NK2 receptor on transfected CHO-K1 cells; type: binding; settings: CHO-K1 cells transfected with the NK2 receptor
T1 construct: expressed in transfected cells; host or cells: CHO-K1
T1 sequence (P21452 1-398): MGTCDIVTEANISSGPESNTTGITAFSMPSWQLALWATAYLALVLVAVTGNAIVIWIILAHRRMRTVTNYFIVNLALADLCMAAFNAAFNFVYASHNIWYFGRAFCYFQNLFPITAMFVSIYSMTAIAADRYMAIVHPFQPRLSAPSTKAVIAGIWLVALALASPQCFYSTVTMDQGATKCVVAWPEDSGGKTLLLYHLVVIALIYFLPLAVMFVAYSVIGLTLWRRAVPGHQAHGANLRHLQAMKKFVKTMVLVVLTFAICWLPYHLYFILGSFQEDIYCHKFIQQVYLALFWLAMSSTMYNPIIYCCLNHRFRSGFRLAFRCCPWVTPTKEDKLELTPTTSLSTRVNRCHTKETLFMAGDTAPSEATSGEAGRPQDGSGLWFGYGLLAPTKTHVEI
From the text: (§1) The affinity for the human NK1 and NK2 receptors was studied on IM-9 human lymphoblasts specifically expressing the NK1 receptor as described by D. G. Payan et al. (J. Biol. Chem. 1986, 261, 14321-14329) and on CHO-K1 cells transfected with the NK2 receptor according to the CellPhect transfection kit (Pharmacia).

[2] = molecular target: T2, human NK1 receptor (Homo sapiens, UniProt P25103); experiment: Affinity for the human NK1 receptor on IM-9 human lymphoblasts; type: binding
T2 construct: IM-9 human lymphoblasts specifically expressing the NK1 receptor; endogenous in cells; host or cells: IM-9 human lymphoblasts
T2 sequence (P25103 whole entry): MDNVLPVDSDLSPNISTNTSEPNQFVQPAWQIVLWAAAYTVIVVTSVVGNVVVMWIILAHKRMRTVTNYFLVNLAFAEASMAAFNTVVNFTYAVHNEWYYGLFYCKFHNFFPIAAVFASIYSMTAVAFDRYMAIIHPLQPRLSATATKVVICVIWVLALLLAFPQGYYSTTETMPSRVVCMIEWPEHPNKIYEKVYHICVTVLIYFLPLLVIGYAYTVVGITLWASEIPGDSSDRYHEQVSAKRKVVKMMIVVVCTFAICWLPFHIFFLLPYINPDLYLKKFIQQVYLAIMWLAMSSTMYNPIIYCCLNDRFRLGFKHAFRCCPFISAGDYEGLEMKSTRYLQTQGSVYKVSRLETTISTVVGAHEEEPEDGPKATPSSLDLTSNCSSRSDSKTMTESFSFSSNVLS
From the text: as §1

[3] = molecular target: T3, NK2 receptors (Oryctolagus cuniculus, UniProt P79218); experiment: Isolated smooth muscle: rabbit pulmonary artery without endothelium (RPA) contraction, antagonist pA2; type: biochemical
T3 construct: the rabbit pulmonary artery without endothelium (RPA); from tissue; host or cells: rabbit pulmonary artery without endothelium
T3 sequence (P79218 1-384): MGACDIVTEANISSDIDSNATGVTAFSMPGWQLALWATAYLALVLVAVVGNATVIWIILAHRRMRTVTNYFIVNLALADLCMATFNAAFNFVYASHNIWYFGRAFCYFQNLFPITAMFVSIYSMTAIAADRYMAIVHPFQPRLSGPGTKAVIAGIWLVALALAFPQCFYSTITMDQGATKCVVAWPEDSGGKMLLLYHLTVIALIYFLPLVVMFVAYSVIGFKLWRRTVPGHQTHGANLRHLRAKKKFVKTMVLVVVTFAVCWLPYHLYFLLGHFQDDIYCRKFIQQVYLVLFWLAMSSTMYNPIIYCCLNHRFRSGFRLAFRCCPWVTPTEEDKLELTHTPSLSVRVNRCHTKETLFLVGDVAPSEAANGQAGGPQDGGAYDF
From the text: (§2) In order to evaluate the functional activity of the compounds of the invention as neurokinin antagonists, two isolated preparations of smooth muscle were used: the rabbit vena cava (RVC) and the rabbit pulmonary artery without endothelium (RPA), the contractile responses of which are mediated, respectively, by the NK1 and NK2 receptors as shown by D. Jukic et al. (Life Sci. 1991, 49, 1463-1469).
(§3) The antagonist power of the compounds of the invention was expressed in the form of pA2 as defined by O. Arunlakshana and H. O. Schild (Brit. J. Pharmacol. 1959, 14, 48-58).

[4] = test system: substance P-induced bronchoconstriction; experiment: Inhibition of substance P-induced bronchoconstriction in guinea pigs; type: in vivo
Experimental: The study is carried out on male Hartley guinea pigs (Charles River) weighing 300 to 400 g on average. The study is carried out on anesthetized (ethyl carbamate 1.5 g/kg) and Flaxedilcurarized (0.2 mg/kg iv) animals ventilated at a rate of 60 per minute and a volumetric flow of 10ml/kg. The animals are pretreated with pyrilamine (1 mg/kg iv) and propranolol (1 mg/kg iv).
The criterion of judgment of bronchoconstriction is the increase in tracheal insufflation pressure (TIP) induced by the iv injection of substance P at a dose of 2 nM/kg iv, each animal being its own control. Injection of the test product is performed with reference to the time TO of the injection of the product.
The results are expressed as a dose inhibiting substance P-induced bronchoconstriction by 50%, this percentage being calculated according to the following formula: (ΔTIP before product-ΔTIP after product)/ΔTIP before product (expressed as a percentage).

[5] = molecular target: T4, NK1 receptors (Oryctolagus cuniculus, UniProt G1SEI7); experiment: Isolated smooth muscle: rabbit vena cava (RVC) contraction, antagonist pA2; type: biochemical
T4 construct: two isolated preparations of smooth muscle were used: the rabbit vena cava (RVC); from tissue; host or cells: rabbit vena cava
T4 sequence (G1SEI7 1-407): as the sequence (P25103 whole entry) above, with S12F, N189D, P369A, D371E, T376N, C386G, D391N, S402Y, V405M counted along it
From the text: as §2, §3

[6] = test system: capsaicin-induced plasma extravasation; experiment: Inhibition of capsaicin-induced plasma extravasation in guinea pig bronchi; type: in vivo, guinea pigs; settings: iv 5 minutes before capsaicin 200 μg/kg iv, Evans blue
Experimental: The effect of the compounds on the plasma extravasation caused by intravenous injection of capsaicin (200 μg/kg) in guinea pigs was evaluated in the bronchi according to the method described by Robineau et al (Eur. J. Pharmacol., 1995, 294, 677-684). The accumulation in the bronchi of Evans blue injected IV 1 minute before capsaicin was quantified by spectrophotometry after extraction of the dye with acetone. The inhibitory activity of the compounds via the intravenous route 5 minutes before capsaicin was expressed as a 50% inhibitory dose in comparison to a control group (8 animals per group).

SMILES: O=C(OCc1cc(C(F)(F)F)cc(C(F)(F)F)c1)[C@H](Cc1c[nH]c2ccccc12)NC(=O)[C@@H]1C[C@@H](O)CN1C(=O)c1cn(CCCCc2nnn[nH]2)c2ccccc12.[K] [Example 1, {1-[4-(1H-Tetrazol-5-yl)butyl]-3-indolyl}carbonyl-Hyp-Trp-OBzl(3,5-ditrifluoromethyl) potassium salt]
- Ki [1]: 4200 nM
- Ki [2]: 2.4 nM
- pA2 in relation to the NK2 receptors [3]: 5.2
- ED50, dose inhibiting substance P-induced bronchoconstriction by 50% ([4]; anesthetized guinea pigs, substance P 2 nM/kg iv, tracheal insufflation pressure): 0.06 mg/kg
- Potency relative to compound of Example 1 of Patent EP 684,257 ([4]; substance P-induced bronchoconstriction, guinea pigs): two and a half times as potent
- pA2 in relation to the NK1 receptors [5]: 8.9
- ED50, inhibition of capsaicin-induced plasma extravasation [6]: 0.026 mg/kg
